Measured values from patent US7566722B2, “Triazolopyrimidine derivatives as ADP P2Y12 receptor antagonists” (Janssen Pharmaceutica, N.V., priority 2006, dated 2009).

Legend:
[1] = target: T1, ADP P2Y12 receptor (Homo sapiens, UniProt Q9H244); assay: FLIPR calcium assay transducing Gi-coupled signaling to the Gq pathway (inhibition of ADP-induced calcium mobilization); assay type: cell-based; conditions: HEK 293 cells co-transfected with P2Y12 and Gqi5, ADP at EC60-70 dose
T1 construct: expressed in transfected cells
T1 sequence (Q9H244 whole entry): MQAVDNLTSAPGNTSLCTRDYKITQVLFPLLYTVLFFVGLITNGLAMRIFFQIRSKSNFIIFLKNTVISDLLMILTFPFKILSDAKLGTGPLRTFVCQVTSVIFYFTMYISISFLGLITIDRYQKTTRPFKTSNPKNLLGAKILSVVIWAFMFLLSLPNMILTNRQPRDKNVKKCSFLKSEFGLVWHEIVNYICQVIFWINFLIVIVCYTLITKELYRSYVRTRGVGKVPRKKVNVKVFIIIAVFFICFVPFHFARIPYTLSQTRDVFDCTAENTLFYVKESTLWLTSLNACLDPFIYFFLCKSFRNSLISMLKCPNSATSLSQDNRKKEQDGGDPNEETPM
Excerpt: A FLIPR Calcium Assay Transducing Gi-Coupled Signaling to the Gq Pathway
The ADP P2Y12 subtype is a Gi coupled GPCR, which mediates inhibition of adenylate cyclase leading to decreased cAMP while Gq proteins primarily activate phospholipase C, which stimulates inositol-1,4,5-triphosphate (IP3) formation and a subsequent increase in intracellular Ca^2+ concentration, which can be easily measured by FLIPR. Prior to the development of a method to convert a Gi coupled GPCR signaling to a Gq coupled GPCR signaling, a significant barrier existed for the functional testing and screening of Gi coupled GPCRs. One popular method, GTPγS migration, is slow, produces a small signal and generates radioactive waste. The discovery that a small switch in the amino acid sequence in the Gi protein could convert it to a protein mediating a Gq coupled response has led to the development of robust, high throughput assays for this valuable receptor subtype.
The FLIPR-based HTS assay transducing the Gi signaling to the Gq pathway is described below.
pcDNA3hygroP2Y12 containing a hygromycin resistance gene and pLEC1-Gqi5-HA containing a neomycin resistance gene (licensed from Molecular Devices, Sunnyvale, Calif.) were co-transfected into Human embryonic kidney (HEK) 293 cells with SuperFect (Qiagen, Valencia, Calif.). Cell clones were selected in the presence of 600 μg/ml hygromycin B (Life Technologies, Carlsbad, Calif.) and 1 mg/ml of G418 (Mediatech, Herndon, Va.). Drug resistant colonies were picked and screened by FLIPR and the gene expression was further confirmed by RT-PCR. Positive clones were maintained in growth medium (DMEM supplemented with 10% FBS, 1× p/s) containing 400 μg/ml of G418 and 200 μg/ml of hygromycin.
The day before the assay, cells are seeded in clear, flat-bottom black-wall, tissue culture treated polystyrene 96- or 384-well plates and incubated at 37° C., 5% CO2. 50 μl of complete dye loading solution (FLIPR Calcium Assay Kit, Molecular Devices) was added to each well containing 100 μl of culture media. The cells were incubated for at least 30 min at 37° C., in 5% CO2 before initiating the assay on the FLIPR. The agonist effect of ADP was tested and EC50 was determined prior to compound testing. The EC60-70 dose was used.
The antagonist compounds were prepared at 4× and the agonists were diluted at 5× the concentration desired in the test wells, and then aliquoted into the sample plates. The sample plates and the cell plate were placed in the FLIPR assay chamber. A first addition (50 μl) was made at the start of reading and a second addition (50 μl) was made after 5 min of reading. Raw fluorescence data was exported for each well and tabulated versus time within an ASCII file. Data was then imported into Excel and the peak response over the basal level was determined. The percent inhibition for each compound was calculated by the change in fluorescent density as a % inhibition of the control ADP response to obtain an IC50, as shown in Table 1 (wherein N/A means Not Applicable).

[2] = target: T2, P2Y12 receptor (Homo sapiens, UniProt Q9H244); assay: Whole cell receptor binding assay, 2-MeS[3H]-ADP; conditions: HEK 293 cells stably transfected with P2Y12; 2-MeS[3H]-ADP 3 nM; 30 min at 37° C.; read-out: Inhibition of Receptor Binding (IC50 μM)
T2 construct: expressed in transfected cells
T2 sequence (Q9H244 whole entry): as above
Procedure: A whole cell-binding assay for 2-MeS [^3H]-ADP (Custom synthesized by Amersham BioScience, Piscataway, N.J.) to the P2Y12 receptor was performed.
A P2Y12 cDNA containing hygromycin resistant gene was transfected in HEK 293 cells. A stable cell line was obtained by a cloning selection method. The cells were cultured in DMEM supplemented with 10% FBS and 1× of p/s.
On the day of the assay, the cells were harvested and resuspended in 0.25% BSA-DMEM and adjusted to a cell concentration of 1.6×10^6/ml. 15 μl of each compound was mixed with 120 μl of cell suspension in 96 well assay plates and incubated for 5 min prior to the addition of the radio-labeled ligand 2-MeS[^3H]-ADP (3 nM final in 0.25% BSA-DMEM) or unlabeled […] (for non-specific binding). The reaction was then incubated for 30 min at 37° C. and stopped by adding cold DMEM. The labeled and unlabeled cells were separated by a filtration method using a Packard Filtermate 196 on to the unfilter-96 GF/B plate. The plates were dyed in a 37° C. oven for 1-2 hours and 50 μl of MicroScint-20 (PerkinElmer) was added to each well. The radioactivity was measured using a TOPCOUNT beta counter (Packard). The percent inhibition for each compound was calculated by the change in radioactivity as a % inhibition of the control to obtain an IC50, as shown in Table 2.

[3] = test system: platelets; assay: In vitro platelet aggregation (ADP-induced, washed platelets); assay type: cell-based; conditions: Homo sapiens, washed platelets from healthy volunteers, agonist giving 60-70% aggregation, % inhibition of control ADP response
Procedure: Platelet aggregation studies were performed according to a published method (Bednar, B., Condra, C., Gould, R. J., and Connolly, T. M., Throm. Res., 77:453-463 (1995). Platelet-rich plasma (PRP) concentrates prepared from healthy volunteers who were aspirin free for at least 7 days by venipuncture using ACD-A as anticoagulant was purchased from Biological Specialties, Inc. (Colmar, Pa.). PRP was centrifuged at 730 g for 15 min. The platelet pellet was washed twice in CGS buffer (13 mM sodium citrate, 30 mM glucose, 120 mM NaCl, pH 6.5) containing 1 μ/ml apyrase (grade V, Sigma-Aldrich, St. Louis, Mo.), 1 mM EGTA, and resuspended in Tyrode's buffer (140 mM NaCl, 2.7 mM KCl, 12 mM NaHCO3, 0.76 mM Na2HPO4, 5.5 mM dextrose, 5.0 mM Hepes, 0.2% BSA, pH 7.4). The platelets were diluted to 3×10^8 platelets/ml and kept >45 min at 37° C. before use. 105 μl of washed platelets, 2 mM CaCl2 and […] of fibrinogen were added to a 96-well microliter plate.
Platelet aggregation was initiated by the addition of serial concentrations of ADP (BioData Corp. Horsham, Pa.). Buffer was added to one set of control wells. The assay plate was stirred constantly and intermittently placed in a microplate reader (Softmax, Molecular Devices, Menlo Park, Calif.) to read optical density (650 nm) at 0 and 5 minutes after the addition of the compound solutions. Aggregation was calculated as the decrease in optical density between the time 0- and 5-min measurements and expressed as % of aggregation. For the inhibition assay, platelet aggregation was conducted as described above except for compound additions. Test compounds were prepared in 100% DMSO and stored.
On the day of the assay, test compounds were diluted in the buffer containing 3% of DMSO as a 10× working solution. 15 μl of compound solutions were added to 105 μl of platelets 5 min prior to the addition of CaCl2 and fibrinogen.

CCCSc1nc(N[C@@H]2C[C@H]2c2ccccc2)c2nnn([C@@H]3C[C@H](c4nnn[nH]4)[C@@H](O)[C@H]3O)c2n1 (mixture of isomers) [Cpd 1, (1R,2S,3R,5R)-3-{7-[(1RS,2SR)-2-phenyl-cyclopropylamino]-5-propylsulfanyl-[1,2,3]triazolo[4,5-d]pyrimidin-3-yl}-5-(1H-tetrazol-5-yl)-cyclopentane-1,2-diol]
IC50 [1]: 0.037 µM | IC50 [2]: 0.0043 µM | IC50 [3]: 0.037 µM

CCCSc1nc(N[C@@H]2C[C@H]2c2ccccc2)c2nnn([C@@H]3C[C@H](Cn4ncnn4)[C@@H](O)[C@H]3O)c2n1 (mixture of isomers) [Cpd 3, (1R,2S,3R,5R)-3-{7-[(1RS,2SR)-2-phenyl-cyclopropylamino]-5-propylsulfanyl-[1,2,3]triazolo[4,5-d]pyrimidin-3-yl}-5-tetrazol-2-ylmethyl-cyclopentane-1,2-diol]
IC50 [1]: 0.595 µM | IC50 [2]: 0.148 µM | IC50 [3]: 1.24 µM

CCCCNc1nc(SCCC)nc2c1nnn2[C@@H]1C[C@H](c2nnn[nH]2)[C@@H](O)[C@H]1O [Cpd 2, (1R,2S,3R,5R)-3-(7-butylamino-5-propylsulfanyl-[1,2,3]triazolo[4,5-d]pyrimidin-3-yl)-5-(1H-tetrazol-5-yl)-cyclopentane-1,2-diol]
IC50 [1]: 0.045 µM | IC50 [2]: 0.0137 µM | IC50 [3]: 0.315 µM

CCCSc1nc(N[C@@H]2C[C@H]2c2ccccc2)c2nnn([C@@H]3C[C@H](c4nnn[nH]4)[C@@H](O)[C@H]3O)c2n1 [Cpd 22, (1R,2S,3R,5R)-3-{7-[(1R,2S)-2-phenyl-cyclopropylamino]-5-propylsulfanyl-[1,2,3]triazolo[4,5-d]pyrimidin-3-yl}-5-(1H-tetrazol-5-yl)-cyclopentane-1,2-diol]
IC50 [1]: 0.024 µM | IC50 [2]: 0.002 µM | IC50 [3]: 0.002 µM

CCCCNc1nc(SCCC)nc2c1nnn2[C@@H]1C[C@H](C2=NCCN2)[C@@H](O)[C@H]1O [Cpd 11, (1R,2S,3R,5R)-3-(7-butylamino-5-propylsulfanyl-[1,2,3]triazolo[4,5-d]pyrimidin-3-yl)-5-(4,5-dihydro-1H-imidazol-2-yl)-cyclopentane-1,2-diol]
IC50 [1]: > 30 µM | IC50 [2]: 4.61 µM | IC50 [3]: > 30 µM

CCCSc1nc(NCCSC)c2nnn([C@@H]3C[C@H](c4nnc(C)[nH]4)[C@@H](O)[C@H]3O)c2n1 [Cpd 19, (1R,2S,3R,5R)-3-[7-(2-methylsulfanyl-ethylamino)-5-propylsulfanyl-[1,2,3]triazolo[4,5-d]pyrimidin-3-yl]-5-(5-methyl-4H-[1,2,4]triazol-3-yl)-cyclopentane-1,2-diol]
IC50 [1]: > 30 µM | IC50 [2]: 5.09 µM | IC50 [3]: > 30 µM

CCCSc1nc(NC[C@H](C)c2ccccc2)c2nnn([C@@H]3C[C@H](c4nnc(C)[nH]4)[C@@H](O)[C@H]3O)c2n1 [Cpd 17, (1S,2R,3R,5R)-3-(5-methyl-4H-[1,2,4]triazol-3-yl)-5-{7-[(2R)-2-phenylpropylamino]-5-propylsulfanyl-[1,2,3]triazolo[4,5-d]pyrimidin-3-yl}-cyclopentane-1,2-diol]
IC50 [1]: > 30 µM | IC50 [2]: 9.59 µM | IC50 [3]: > 30 µM

CCCSc1nc(N[C@@H]2C[C@H]2c2ccccc2)c2nnn([C@@H]3C[C@H](Cn4ccnc4)[C@@H](O)[C@H]3O)c2n1 (mixture of isomers) [Cpd 5, (1S,2R,3R,5R)-3-imidazol-1-ylmethyl-5-{7-[(1RS,2SR)-2-phenyl-cyclopropylamino]-5-propylsulfanyl-[1,2,3]triazolo[4,5-d]pyrimidin-3-yl}-cyclopentane-1,2-diol]
IC50 [1]: 0.805 µM | IC50 [2]: 0.26 µM | IC50 [3]: 0.529 µM

CCCSc1nc(NCC(F)(F)F)c2nnn([C@@H]3C[C@H](c4nnc(C)[nH]4)[C@@H](O)[C@H]3O)c2n1 [Cpd 18, (1S,2R,3R,5R)-3-(5-methyl-4H-[1,2,4]triazol-3-yl)-5-[5-propylsulfanyl-7-(2,2,2-trifluoro-ethylamino)-[1,2,3]triazolo[4,5-d]pyrimidin-3-yl]-cyclopentane-1,2-diol]
IC50 [1]: > 30 µM | IC50 [2]: 6.2 µM | IC50 [3]: > 30 µM

CCCSc1nc(N[C@@H]2C[C@H]2c2ccccc2)c2nnn([C@@H]3C[C@H](Cn4nccn4)[C@@H](O)[C@H]3O)c2n1 (mixture of isomers) [Cpd 6, (1R,2S,3R,5R)-3-{7-[(1RS,2SR)-2-phenyl-cyclopropylamino]-5-propylsulfanyl-[1,2,3]triazolo[4,5-d]pyrimidin-3-yl}-5-[1,2,3]triazol-2-ylmethyl-cyclopentane-1,2-diol]
IC50 [1]: 0.98 µM | IC50 [2]: 0.437 µM | IC50 [3]: 0.954 µM

CCCSc1nc(N[C@@H]2C[C@H]2c2ccccc2)c2nnn([C@@H]3C[C@H](c4nnc(C)[nH]4)[C@@H](O)[C@H]3O)c2n1 (mixture of isomers) [Cpd 14, (1S,2R,3R,5R)-3-(5-methyl-4H-[1,2,4]triazol-3-yl)-5-{7-[(1RS,2SR)-2-phenyl-cyclopropylamino]-5-propylsulfanyl-[1,2,3]triazolo[4,5-d]pyrimidin-3-yl}-cyclopentane-1,2-diol]
IC50 [1]: 0.265 µM | IC50 [2]: 0.735 µM | IC50 [3]: 0.064 µM
